Measurements taken from BindingDB's records for doi:10.1111/cbdd.12142 (Delhi Institute of Pharmaceutical Sciences and Research, 2013).

What follows are compounds tested against Dipeptidyl peptidase 4 (Homo sapiens, UniProt P27487) (assay: In vitro DPP IV enzyme inhibition assay). Settings: 37 °C.
Description: Following the manufacturer's guidelines, the assay was performed using 96-well flat-bottomed microtitre plate followed by addition of assay buffer, DPP IV enzyme and chromogenic substrate (HGly-Pro-pNA). Test compounds were dissolved in DMSO at different concentrations of 25, 50, 100, 200 µg/mL, and 20 µL were added to each well after further dilutions. The plate was incubated at 37°C for 10 min and read continuously at A-405 nm.

Chain of Dipeptidyl peptidase 4 (P27487 whole entry): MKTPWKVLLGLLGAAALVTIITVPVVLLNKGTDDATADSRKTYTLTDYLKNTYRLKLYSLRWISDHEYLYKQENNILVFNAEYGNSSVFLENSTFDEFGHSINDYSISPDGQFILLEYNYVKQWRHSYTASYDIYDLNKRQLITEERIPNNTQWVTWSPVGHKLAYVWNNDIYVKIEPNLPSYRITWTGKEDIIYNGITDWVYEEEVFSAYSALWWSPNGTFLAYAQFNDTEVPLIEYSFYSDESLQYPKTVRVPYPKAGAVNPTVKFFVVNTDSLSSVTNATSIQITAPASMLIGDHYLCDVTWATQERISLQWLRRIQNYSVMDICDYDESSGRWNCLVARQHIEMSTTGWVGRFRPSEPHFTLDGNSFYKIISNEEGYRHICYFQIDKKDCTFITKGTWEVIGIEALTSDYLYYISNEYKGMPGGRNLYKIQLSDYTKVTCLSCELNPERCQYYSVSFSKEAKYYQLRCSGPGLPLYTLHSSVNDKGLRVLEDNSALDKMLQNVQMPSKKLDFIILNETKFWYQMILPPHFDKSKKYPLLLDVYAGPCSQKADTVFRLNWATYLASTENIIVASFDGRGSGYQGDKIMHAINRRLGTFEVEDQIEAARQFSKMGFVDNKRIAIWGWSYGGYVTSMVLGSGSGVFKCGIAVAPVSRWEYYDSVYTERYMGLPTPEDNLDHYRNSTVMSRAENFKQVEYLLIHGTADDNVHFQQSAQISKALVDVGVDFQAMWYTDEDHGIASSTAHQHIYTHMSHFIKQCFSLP

Question: Which IC50 does the source give for O=C(CN1CCCC1C(=O)N1CCC(F)C1)N1CCCCCC1 (centres undefined) [1‐(azepan‐1‐yl)‐2‐[2‐(3‐fluoropyrrolidine‐1‐ carbonyl)pyrrolidin‐1‐yl]ethan‐1‐one] here?
Answer: 3.47 µM

Question: For O=C(C1CCCN1CCN1CCCCC1)N1CCC(F)C1 (centres undefined) [1‐{2‐[2‐(3‐fluoropyrrolidine‐1‐carbonyl)pyrrolidin‐1‐ yl]ethyl}piperidine], which IC50 is on record?
Answer: 6.49 µM

Question: For O=C(CN1CCCC1C(=O)N1CCC(F)C1)N1CCCCC1 (centres undefined) [2‐[2‐(3‐fluoropyrrolidine‐1‐carbonyl)pyrrolidin‐1‐ yl]‐1‐(piperidin‐1‐yl)ethan‐1‐one], which IC50 is on record?
Answer: 7.88 µM

Question: O=C(CN1CCCC1C(=O)N1CCC(F)C1)N1CCCC1 (centres undefined) [2‐[2‐(3‐fluoropyrrolidine‐1‐carbonyl)pyrrolidin‐1‐ yl]‐1‐(pyrrolidin‐1‐yl)ethan‐1‐one] was tested. Which IC50 did it give?
Answer: 16.7 µM

Question: Which IC50 does the source give for O=C(CN1CCCC1C(=O)N1CCC(F)C1)N1CCN(c2ccccn2)CC1 (centres undefined) [2‐[2‐(3‐fluoropyrrolidine‐1‐carbonyl)pyrrolidin‐1‐ yl]‐1‐[4‐(pyridin‐2‐yl)piperazin‐1‐yl]ethan‐1‐one] here?
Answer: 0.83 µM

Question: For O=C(CN1CCCC1C(=O)N1CCC(F)C1)N1CCN(c2ncccn2)CC1 (centres undefined) [2‐[2‐(3‐fluoropyrrolidine‐1‐carbonyl)pyrrolidin‐1‐ yl]‐1‐[4‐(pyrimidin‐2‐yl)piperazin‐1‐yl]ethan‐1‐ one], which IC50 is on record?
Answer: 0.43 µM

Question: With O=C(C1CCCN1)N1CCC(F)C1 (centres undefined) [3‐fluoro‐1‐(pyrrolidine‐2‐carbonyl)pyrrolidine] as the compound, how does the IC50 read?
Answer: 4.27 µM

Question: CCN(CC)CCN1CCCC1C(=O)N1CCC(F)C1 (centres undefined) [diethyl({2‐[2‐(3‐fluoropyrrolidine‐1‐ carbonyl)pyrrolidin‐1‐yl]ethyl})amine] was tested. Which IC50 did it give?
Answer: 23.8 µM

Question: CN(C)CCN1CCCC1C(=O)N1CCC(F)C1 (centres undefined) [{2‐[2‐(3‐fluoropyrrolidine‐1‐carbonyl)pyrrolidin‐1‐ yl]ethyl}dimethylamine] was tested. Which IC50 did it give?
Answer: 30.2 µM
